Measurements reported in patent publication US20050074879A1, “Antisense oligonucleotide modulation of STAT3 expression” (priority 2000, published 2005).
Oligonucleotides are written 5' to 3', each unit as a sugar letter and its base; * is a phosphorothioate linkage, no mark a phosphodiester; rarer units and linkages stand in square brackets, end groups in braces. Plain capitals give the bases only. e = 2'-O-(2-methoxyethyl) (MOE); [5mC] = 5-methylcytosine; d = 2'-deoxy (DNA)

Key:
[1] = tested on: IgM secretion by BCL1 cells; test: BCL1 IgM secretion, ELISA; type: cell-based, mouse; settings: compared with mismatch control
Experimental: The effect of ISIS 17152 (SEQ ID. NO. 99) on IgM secretion levels was determined. STAT3 has been implicated in regulation of IgM expression (Faris, M., et al., Immunology, 1997, 90, 350-357). BCL1 cells were grown, treated and processed as described in Example 2.
1×10^6 BCL1 cells were incubated in 12-well plates in 2 mL complete RPMI following electroporation. Supernatant was replaced at 24 hour post electroporation with fresh medium. 48 hours later, supernatants were harvested, centrifuged to remove cells, and assayed for IgM content using the OPT-EIA™ ELISA kit (Pharmingen, San Diego, Calif.) and capture and detecting antibodies for mouse IgM (Southern Biotechnology, Birmingham, Ala.).

STAT3 protein = STAT3 protein in B16 cells, Western blot; type: cell-based, mouse; settings: 200 nM or 300 nM, 24 hours after treatment
Experimental: (§1) Cells were treated with ISIS 17152, targeted to mouse STAT3, or the 3-base mismatch control, ISIS 28084 ([…]; SEQ ID NO: 151). Cells were transfected with oligonucleotide using LipofectAMINE PLUSJ reagent (GibcoBRL). Oligonucleotide was pre-complexed with LipofectAMINE PLUSJ by adding the oligonucleotide to 100 μl serum-free RPMI 1640 medium, then 6 μl LipofectAMINE PLUSJ reagent was added, the sample was mixed well and incubated for 15 minutes at room temperature. An additional 4 μl of LipofectAMINE PLUSJ reagent was diluted to 100 μl in serum-free RPMI. This diluted LipofectAMINE PLUSJ was mixed with the pre-complexed oligonucleotide/LipofectAMINE PLUSJ mixture and incubated for 15 minutes at room temperature. 800 μl of serum-free RPMI 1640 was added, and the resulting oligonucleotide-LipofectAMINE PLUSJ-medium mixture (approximately 1 ml) was added to cells in a 6-well plate. After 3 hours incubation, 1 ml of RPMI 1640 supplemened with 20% fetal bovine serum was added. Oligonucleotide concentrations were 200 nM or 300 nM.
24 hours after transfection, cells were counted to determine the effect of antisense treatment on cell death. Cells were harvested at 24 hours post transfection for western blot analysis and at 48 hours post-transfection for Annexin-V staining for apoptosis. […]

Mouse B16 melanoma cells = test: Cell number of B16 melanoma cells after antisense treatment; type: cell-based; settings: 24 hours after transfection
Experimental: Mouse B16 melanoma cells were grown in RPMI 1640 (Life Technologies, Inc., Grand Island, N.Y.) medium supplemented with 10% fetal bovine serum, 2 mM L-glutamine, 1 mM sodium pyruvate, 1% MEM nonessential amino acids and 100 IU/ml penicillin/streptomycin.
as §1
24 hours after transfection, cells were counted to determine the effect of antisense treatment on cell death. Cells were harvested at 24 hours post transfection for western blot analysis and at 48 hours post-transfection for Annexin-V staining for apoptosis.

Mouse STAT3 protein = test: STAT3 protein levels in BCL1 cells by Western blot, dose response; type: cell-based; settings: compared with mismatch control
Experimental: ISIS 17152 (SEQ ID. NO. 99) was chosen for further study. The effect of this oligonucleotide on protein levels was determined by Western blot. ISIS 23177 (SEQ ID NO. 106), a 3 base mismatch, was used as a control. BCL1 cells were grown, treated and processed as described in Example 2.
Nuclear extracts from primary B cells and B lymphoma cell lines were prepared as described in Karras, J. G., et al. (J. Exp. Med., 1997, 185, 1035-1042).
Western blotting was performed as described in Karras, J. G. et al. (J. Immunol., 1996, 157, 2299). STAT1 and STAT3 antibodies were obtained from UBI (Lake Placid, N.Y.).

RANTES mRNA = test: Induction of chemokines in BCL1 cells, RNase protection assay: RANTES; type: cell-based, mouse; settings: statement covers all three chemokines
Experimental: The effect of ISIS 17152 (SEQ ID. NO. 99) on chemokine levels was determined. BCL1 cells were grown, treated and processed as described in Example 2. Chemokine gene expression was induced in BCL1 cells by addition of […] of a CpG-containing oligonucleotide to the media 16 hours following antisense oligonucleotide electroporation. CpG-containing oligonucleotides are immune-stimulatory (Krieg, A. M., et al., Nature, 1995, 374, 546-549). The levels of chemokines were measured eight hours later using RNase protection assay as described in Example 2 with a mouse chemokine template set, Mck-5 (Pharmingen, San Diego, Calif.).

B16 cells = test: Apoptosis in B16 cells, Annexin V-PE staining and flow cytometry; type: cell-based, mouse
Experimental: as §1
24 hours after transfection, cells were counted to determine the effect of antisense treatment on cell death. […]
Apoptosis in B16 cells was measured by staining with Annexin V-PE (Clontech) and flow cytometry analysis 48 hours after antisense treatment. […]

BCL1 cells = test: BCL1 cell proliferation, [3H]-thymidine incorporation; type: cell-based, mouse; settings: summary of Table 6
Experimental: The effect of ISIS 17152 (SEQ ID NO. 99) on BCL1 proliferation was determined. BCL1 cells contain constitutively active STAT3 which is thought to be responsible for their proliferation. BCL1 cells were grown, treated and processed as described in Example 2.
1×10^5 BCL1 cells were incubated in 96-well plates in […] complete RPMI following electroporation. Cultures were pulsed with […] of [^3H]-thymidine for the last 8 hours of culture and cells were harvested and analyzed for thymidine incorporation as described in Francis, D. A. et al. (Int. Immunol., 1995, 7, 151-161) 48 hours after electroporation.

Human STAT3 mRNA = test: Inhibition of human STAT3 mRNA expression in U266 cells, Northern blot; type: cell-based; settings: following electroporation, Northern blotting
Experimental: U266 human myeloma cell lines (originally obtained from American Type Culture Collection) were maintained in RPMI 1640 medium supplemented with 10% fetal calf serum. Cells (15×10^6 cells in PBS) were transfected with oligonucleotides at 200V with a single 6-millisecond pulse using a BTX Electro Square Porator T820 (Genetronics, San Diego Calif.). The cells were incubated for 24 hours before RNA extraction.
Total cellular RNA was isolated using the Rneasy kit (Qiagen, Santa Clarita, Calif.). Northern blotting was perfomed on 15 μg of RNA using a cDNA probe prepared from MB-MDA 468 RNA by standard RT-PCR followed by a nested primer reaction. Signals were quantitated using a Molecular Dynamics Phosphorimager.
In order to examine the importance of STAT3 expression in multiple myeloma cells, a series of 20mer STAT3 antisense oligonucleotides were designed and synthesized, using phosphorothioate chemistry and incorporating 2′-O-methoxyethyl modifications to improve hybridization affinity and nuclease resistance.

[2] = tested on: U266 multiple myeloma cells; test: Apoptosis of U266 cells, Annexin-V staining, flow cytometry; type: cell-based, human
Experimental: U266 cells (ATCC, Bethesda, Md.) were cultured in RPMI 1640 medium supplemented with 10% heat-inactivated fetal bovine serum (Sigma Chemical Company, St. Louis, Mo.), 10 mM Hepes, pH 7.2, […] 2-ME, 2mM L-glutamine, 100 U/ml penicillin, and 100 µg/ml streptomycin (Gibco, Grand Island, N.Y.).
2′-O-methoxyethylribose modified phosphorothioate oligonucleotides were synthesized on an automated DNA synthesizer (Applied Biosystems model 380B), as described above. Chimeric oligonucleotides were employed in these studies; the chimeric oligonucleotides contain 2′-O-methoxyethyl modified residues flanking a 2′-deoxynucleotide/phosphorothioate region (gap) that supports RNase H activation. Oligonucleotides were analyzed by capillary gel electrophoresis and judged to be at least 85% full-length material. U266 (1×10^7 cells in PBS) were transfected with oligonucleotides by electroporation, at 175V, 1000 μF using a BTX Electro Cell Manipulator 600 (Genetronics, San Diego, Calif.).
10×10^6 U266 cells were electroporated with oligonucleotides and cultured for 48 hours before analysis of phosphatidylserine expression was performed as a measure of apoptosis using the Annexin-V staining kit (Clontech, Palo Alto, Calif.) according to the manufacturer's instructions. […] The samples were then diluted with FacsFlow buffer and analyzed on a Becton Dickinson FACScan (Mountain View, Calif.).

LGL leukemic cells = test: Sensitization of LGL cells to Fas-mediated apoptosis, flow cytometry; type: cell-based, human
Experimental: LGL leukemic cells were obtained from patients who met the clinical criteria of T cell (CD3+) LGL leukemia with increased LGL counts and clonal TCR gene rearrangements. All patients had chronic disease not requiring treatment at the time of analysis. Purified leukemic LGL cells were placed in 24-well plates at a concentration of 2×10^6/0.5 mL of complete medium (RPMI-1640 medium supplemented with 10% fetal bovine serum, 2 mM L-glutamine, 10 U/mL penicillin, and 100 ug/mL streptomycin, all from Gibco Life Technologies, Gaithersburg, Md.). Cells were incubated with either ISIS 17148 antisense oligonucleotide (SEQ ID NO: 95) or the control, ISIS 16094 (SEQ ID NO: 152). Antisense oligonucleotide delivery to LGL leukemic cells was by passive uptake and no transfection reagents were included in the reaction.
Extracts of LGL cells treated with antisense oligonucleotides (1 uM dosing for ISIS 17148 and the control) from three patients were obtained and assayed for STAT3 protein levels by Western blot. Sensitization of the LGL cells to Fas-mediated apoptosis was also measured by flow cytometry in cells treated with antisense oligonucleotides at doses of 1, 2 and 5 uM. By Western analysis, a reduction in STAT3 protein levels ranged from 25 to 45%. […] Levels of apoptosis in control oligonucleotide treated cells remained at 6% at all doses.

[3] = tested on: LNCaP human prostatic carcinoma xenograft; test: LNCaP mouse model of prostate carcinoma: tumor volume and serum PSA in castrated nude mice; type: in vivo; settings: 10 mg/kg intraperitoneally, up to 10 weeks post-castration
Experimental: The LNCaP murine model of human prostate carcinoma is described in Kiyama et al., Cancer Res. 63:3575-3584, 2003, incorporated herein by reference. Briefly, LNCaP human prostatic carcinoma cells were cultured and maintained in RPMI medium (Life Technologies, Inc., Carlsbad, Calif.) supplemented with 5% heat inactivated fetal calf serum (FCS). About 1×10^6 LNCaP cells were inoculated subcutaneously with 0.1 ml of Matrigel (Becton Dickinson Labware, Franklin Lakes, N.J.) in the flank region of 6-8 week old male athymic nude mice (Harlan Sprague Dawley, Inc., Indianapolis, Ind.) via a 27 gauge needle under methoxyfluorane anesthesia. Mice bearing tumors between 300 and 500 mm^3 in volume were castrated via a scrotal approach and randomly assigned to treatment with 10 mg/kg of either ISIS 113176 human antisense or ISIS 129987 human mismatch control STAT 3 oligonucleotide intraperitoneally five times per week for the first week followed by three times per week thereafter. Treatment commenced beginning one day after castration. […] Tumor volumes were calculated by the formula L×W×H×0.5236 (Gleave et al., Cancer Res. 51:1598-1605, 1992). Blood samples were obtained from tail vein incisions of mice, and serum PSA levels were determined by an enzymatic immunoassay kit with a lower limit of sensitivity of 0.2 μg/liter (Abbott IMX, Montreal, Quebec, Canada) according to the manufacturer's protocol.

Row | Sequence | reducing IgM secretion (in words) [1] | STAT3 protein production (in words) (STAT3 protein) | cell number (Mouse B16 melanoma cells; 200 nM, Expt 1) | cell number (Mouse B16 melanoma cells; 200 nM, Expt 2) | cell number (Mouse B16 melanoma cells; 200 nM, Expt 3) | cell number (Mouse B16 melanoma cells; 300 nM, Expt 2) | cell number (Mouse B16 melanoma cells; 300 nM, Expt 3) | reducing STAT3 protein levels (in words) (Mouse STAT3 protein) | expression of the chemokines, RANTES, MIP-1 and MIP-1 (in words) (RANTES mRNA) | cells staining positive for Annexin-V (B16 cells; 48 hours after antisense treatment) [%] | increase in apoptotic cells (B16 cells; versus mock and control oligonucleotide) | reduction of BCL1 cell proliferation (BCL1 cells) | STAT3 mRNA expression in U266 cells (in words) (Human STAT3 mRNA) | annexin V staining (in words) [2] | percent specific apoptosis (LGL leukemic cells; 1 uM, untreated cells 5%) [%] | percent specific apoptosis (LGL leukemic cells; 2 uM) [%] | percent specific apoptosis (LGL leukemic cells; 5 uM) [%] | induction of serum PSA levels [3] | tumor growth [3]
1 | AAAAAGTGCCCAGATTGCCC (antisense eA*eA*eA*eA*eA*dG*dT*dG*dC*dC*dC*dA*dG*dA*dT*eT*eG*e[5mC]*e[5mC]*e[5mC]) [ISIS 17152] | significantly better at reducing IgM secretion than the mismatch control | significantly reduced | 3.8 × 10^5 | 6.8 × 10^5 | 1.8 × 10^5 | 3.5 × 10^5 | 2.2 × 10^5 | significantly better at reducing STAT3 protein levels than the mismatch control | able to induce the expression of the chemokines | 29.84 | nearly threefold increase | approximately 50% |  |  |  |  |  |  | 
2 | ACTCAAACTGCCCTCCTGCT (listed as DNA, chemistry not fully specified) [ISIS 17148] |  |  |  |  |  |  |  |  |  |  |  |  | potently inhibit STAT3 mRNA expression | increased levels of annexin V staining | 6 | 17 | 24 |  | 
3 | GCTCCAGCATCTGCTGCTTC (antisense eG*e[5mC]*eT*e[5mC]*e[5mC]*dA*dG*d[5mC]*dA*dT*d[5mC]*dT*dG*d[5mC]*dT*eG*e[5mC]*eT*eT*e[5mC]) [ISIS 113176] |  |  |  |  |  |  |  |  |  |  |  |  | potently inhibit STAT3 mRNA expression |  |  |  |  | suppressed | suppressed
